In article PMC11709109, “Identification of AS1842856 as a novel small‐molecule GSK3α/β inhibitor against Tauopathy by accelerating GSK3α/β exocytosis” (Aging Cell, 2024):

What was measured:
GSK3α = biological target: T1, GSK3α (Homo sapiens, UniProt P49840); experiment: bio-layer interferometry (Octet K2, Ni-NTA); supported by CETSA in N2a lysate; assay type: binding
T1 construct: gene GSK3A; recombinant, His tag (CLOUD-CLONE RPA360Hu01)

GSK3β = biological target: T2, GSK3β (Homo sapiens, UniProt P49841); experiment: as above; assay type: binding
T2 construct: gene GSK3B; recombinant, His tag (Sino Biological 10044-H07B)

T1 sequence (P49840 2-483): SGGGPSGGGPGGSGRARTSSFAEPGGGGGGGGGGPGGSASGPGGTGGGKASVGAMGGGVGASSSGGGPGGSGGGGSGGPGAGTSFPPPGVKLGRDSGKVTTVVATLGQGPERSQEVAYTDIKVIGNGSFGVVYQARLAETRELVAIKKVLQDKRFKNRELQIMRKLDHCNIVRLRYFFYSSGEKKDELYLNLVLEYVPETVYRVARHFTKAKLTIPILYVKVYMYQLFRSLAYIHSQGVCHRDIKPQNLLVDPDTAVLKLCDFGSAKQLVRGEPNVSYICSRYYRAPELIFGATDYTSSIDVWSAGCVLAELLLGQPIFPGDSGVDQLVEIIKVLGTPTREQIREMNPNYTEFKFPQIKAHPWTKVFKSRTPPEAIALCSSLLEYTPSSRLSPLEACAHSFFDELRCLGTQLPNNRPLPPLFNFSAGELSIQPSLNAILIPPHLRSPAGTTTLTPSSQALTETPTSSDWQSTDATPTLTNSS

SMILES: CCn1cc(C(=O)O)c(=O)c2c(N)c(F)c(NC3CCCCC3)cc21 [AS, AS1842856]
- Kd (GSK3α): 15.8 µM
- Kd (GSK3β): 40.9 µM
